The record followed here is ChEMBL document CHEMBL2016449, “Discovery of a novel chemotype of potent human ENaC blockers using a bioisostere approach. Part 2: α-Branched quaternary amines” (Bioorg Med Chem Lett, 2012).

A short description of assay [1]: Blockade of human ENaC expressed in HBE cells by short-circuit current assay. It counts as cell-based.
Assay [2] in a line: Blockade of guinea pig ENaC expressed in FRT cells by short-circuit current assay. It counts as cell-based. The following applies: Cavia porcellus.
Assay [3] has as its system Cavia porcellus. Nature of the assay: Blockade of ENaC in intratracheally dosed Dunkin Hartley guinea pig tracheal potential difference model after 1 hr. It counts as functional. Conditions: inhaled or nasal.
The next assay deals with BE. The assay can be described thus: Ratio of amiloride IC50 to compound IC50 for human ENaC expressed in HBE cells. It counts as cell-based.
Assay [4] relates to Cavia porcellus. Nature of the assay: Ratio of amiloride ED50 to compound ED50 for blockade of ENaC in intratracheally dosed Dunkin Hartley guinea pig. The format is functional.

`CCCC[C@@H](CNC(=O)c1nc(Cl)c(N)nc1N)[N+](C)(C)C`: in assay [1], 59 nM corresponded to half-maximal inhibition (IC50). Turning to `CC[C@@H](CNC(=O)c1nc(Cl)c(N)nc1N)[N+](C)(C)C`, half-maximal inhibition in assay [1] (IC50) required 750 nM. On the same count and under the same terms, in the case of `CC[C@H](CNC(=O)c1nc(Cl)c(N)nc1N)[N+](C)(C)C` it was 510 nM. Still for that read-out and setting: to `C[N+](C)(C)[C@H](CNC(=O)c1nc(Cl)c(N)nc1N)Cc1ccccc1` belongs 170 nM. Still for that read-out and setting: to `CCC[C@H](CNC(=O)c1nc(Cl)c(N)nc1N)[N+](C)(C)C` belongs 290 nM; to `CC(C)(CNC(=O)c1nc(Cl)c(N)nc1N)[N+](C)(C)C`, greater than 30000 nM. Take `CCC[C@@H](CNC(=O)c1nc(Cl)c(N)nc1N)[N+](C)(C)CCCc1ccc(OC)cc1`: in assay [1], the midpoint of inhibition, the IC50, lay at 4 nM.

As for `N=C(N)NC(=O)c1nc(Cl)c(N)nc1N` [AMILORIDE], the IC50 (in general, the concentration at which inhibition is half-maximal) in assay [1] was 220 nM; in assay [2], 540 nM. Further, in the assay on Cavia porcellus [3], the ED50 (in general, the dose that gives a 50% effect, or the effect in half of the subjects) was found to be 16 µg/kg. With `C[C@@H](CNC(=O)c1nc(Cl)c(N)nc1N)[N+](C)(C)C`, the midpoint of inhibition in assay [1], the IC50, lay at 8090 nM. On the same count and under the same terms, to `C[C@H](CNC(=O)c1nc(Cl)c(N)nc1N)[N+](C)(C)C` belongs greater than 10000 nM. In the case of `CCC[C@@H](CNC(=O)c1nc(Cl)c(N)nc1N)[N+](C)(C)C.[I-]`, the IC50 in assay [1] and in assay [2] was 30 nM throughout. The molecule also showed an ED50 in the assay on Cavia porcellus [3] of 1 µg/kg. The Ratio IC50 in the assay with BE worked out at 10. The “Ratio ED50” value with Cavia porcellus [4] stood at 16. In turn, `CC(C)[C@@H](CNC(=O)c1nc(Cl)c(N)nc1N)[N+](C)(C)C` gave an IC50 in assay [1] of 2390 nM.

In turn, `CC(C)[C@H](CNC(=O)c1nc(Cl)c(N)nc1N)[N+](C)(C)C` came in with an IC50 in assay [1] of 19500 nM. Regarding `N/C(=N\C(=O)c1nc(Cl)c(N)nc1N)NCCCCc1ccc(OCC(O)CO)cc1` (configuration not stated) [552-02 FREE BASE], the IC50 in assay [1] amounted to 2 nM; in assay [2], 4 nM. This molecule yielded an ED50 in the assay on Cavia porcellus [3] of 0.2 µg/kg.
